{"source": "patent US10457691B2", "about": "“Macrocyclic kinase inhibitors and uses thereof” (Dana-Farber Cancer Institute, Inc., priority 2014, dated 2019)", "type_in_all_cases": "biochemical", "settings_in_all_cases": "read-out: Activity of the protein kinase when treated with compound I-1 (% control)", "key": {"[1]": {"target": "FGF-R1 (Homo sapiens, UniProt P11362)", "sequence (P11362 22-822)": "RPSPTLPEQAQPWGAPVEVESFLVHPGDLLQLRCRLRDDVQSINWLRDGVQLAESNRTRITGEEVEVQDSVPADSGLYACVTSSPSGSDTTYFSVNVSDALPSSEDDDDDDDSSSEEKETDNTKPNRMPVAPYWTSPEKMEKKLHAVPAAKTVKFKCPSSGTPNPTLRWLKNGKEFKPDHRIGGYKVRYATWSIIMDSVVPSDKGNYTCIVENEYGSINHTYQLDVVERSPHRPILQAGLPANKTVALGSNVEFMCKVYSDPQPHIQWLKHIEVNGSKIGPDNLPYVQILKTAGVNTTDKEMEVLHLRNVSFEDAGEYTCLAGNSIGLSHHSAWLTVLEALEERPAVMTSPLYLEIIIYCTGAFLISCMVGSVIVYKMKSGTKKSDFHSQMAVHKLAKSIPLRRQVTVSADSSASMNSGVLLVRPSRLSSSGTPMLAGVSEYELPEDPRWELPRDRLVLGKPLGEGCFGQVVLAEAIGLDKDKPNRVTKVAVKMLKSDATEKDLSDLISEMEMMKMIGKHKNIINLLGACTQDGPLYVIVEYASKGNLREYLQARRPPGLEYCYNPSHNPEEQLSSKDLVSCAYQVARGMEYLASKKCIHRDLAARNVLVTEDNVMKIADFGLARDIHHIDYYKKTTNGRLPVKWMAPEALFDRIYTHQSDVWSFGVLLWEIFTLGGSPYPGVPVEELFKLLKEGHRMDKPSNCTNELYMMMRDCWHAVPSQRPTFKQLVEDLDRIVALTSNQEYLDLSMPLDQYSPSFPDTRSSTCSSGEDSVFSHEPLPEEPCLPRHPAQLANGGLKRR", "assay": "Protein kinase assay ([γ-32P] ATP), FGF-R1", "procedure": "(§1) In another set of experiments, the activities of the compounds described herein against various protein kinases were determined according to the methods reported in Hastie et al., Nature Protocols, 2006, 1, 968-971.\n(§2) Enzyme dilution buffer. This buffer consisted of 50 mM Tris-HCl, pH 7.5, 0.1 mM EGTA, 1 mg ml^−1 bovine serum albumin and 0.1% (vol/vol) 2-mercaptoethanol.\n(§3) 10× concentrated assay buffer. An assay buffer of 500 mM Tris-HCl, pH 7.5, 1 mM EGTA, and 100 mM magnesium acetate was used for assay of a wide variety of protein kinases. In some experiments, other cofactors were included (e.g., calcium ions and calmodulin were included for assay of calcium-calmodulindependent protein kinases).\n(§4) 1 mM [γ-^32P] ATP. The specific activity of the [γ-^32P] ATP solution was 1×10^5 to 1×10^6 c.p.m. per nmol depending on what was needed to produce an optimal signal/noise ratio. […] To measure the concentration of ATP, a sample of such a stock solution was diluted to 20 μM, and the absorbance of the diluted sample was measured at 259 nm. The absorbance of a 20-μM stock solution of ATP at 259 nm was about 0.31. […] ATP to produce a radioactivity of 1×10^5 to 1×10^6 c.p.m. per nmol. […]\n(§5) 13) Measure radioactivity in the samples by Cerenkov counting (e.g., without liquid scintillation fluid) in a liquid scintillation counter using a “^32P program”. […]"}, "[2]": {"target": "RSK1 (Homo sapiens, UniProt Q15418)", "sequence (Q15418 whole entry, species assumed)": "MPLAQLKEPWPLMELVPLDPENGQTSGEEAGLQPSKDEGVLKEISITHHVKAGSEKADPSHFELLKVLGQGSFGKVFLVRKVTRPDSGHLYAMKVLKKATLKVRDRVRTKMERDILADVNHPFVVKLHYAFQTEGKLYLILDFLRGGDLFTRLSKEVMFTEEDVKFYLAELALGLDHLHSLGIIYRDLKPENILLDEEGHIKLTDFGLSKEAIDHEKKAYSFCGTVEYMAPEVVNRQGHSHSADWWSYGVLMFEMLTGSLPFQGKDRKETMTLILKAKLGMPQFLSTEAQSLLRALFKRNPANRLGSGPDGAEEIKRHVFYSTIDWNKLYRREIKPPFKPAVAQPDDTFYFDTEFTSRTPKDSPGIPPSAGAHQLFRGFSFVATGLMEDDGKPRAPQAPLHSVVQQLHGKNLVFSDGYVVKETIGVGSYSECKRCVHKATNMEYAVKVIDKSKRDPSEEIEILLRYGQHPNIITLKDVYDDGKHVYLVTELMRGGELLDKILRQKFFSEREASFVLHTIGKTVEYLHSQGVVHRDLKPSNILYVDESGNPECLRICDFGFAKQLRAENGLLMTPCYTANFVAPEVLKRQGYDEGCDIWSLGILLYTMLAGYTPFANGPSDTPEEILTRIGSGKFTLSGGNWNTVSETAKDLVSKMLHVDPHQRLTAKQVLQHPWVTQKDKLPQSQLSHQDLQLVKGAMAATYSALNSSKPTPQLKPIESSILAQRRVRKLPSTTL", "assay": "Protein kinase assay ([γ-32P] ATP), RSK1", "procedure": "as §1, §2, §3, §4, §5"}, "[3]": {"target": "IGF-1R (Homo sapiens, UniProt P08069)", "sequence (P08069 31-1367)": "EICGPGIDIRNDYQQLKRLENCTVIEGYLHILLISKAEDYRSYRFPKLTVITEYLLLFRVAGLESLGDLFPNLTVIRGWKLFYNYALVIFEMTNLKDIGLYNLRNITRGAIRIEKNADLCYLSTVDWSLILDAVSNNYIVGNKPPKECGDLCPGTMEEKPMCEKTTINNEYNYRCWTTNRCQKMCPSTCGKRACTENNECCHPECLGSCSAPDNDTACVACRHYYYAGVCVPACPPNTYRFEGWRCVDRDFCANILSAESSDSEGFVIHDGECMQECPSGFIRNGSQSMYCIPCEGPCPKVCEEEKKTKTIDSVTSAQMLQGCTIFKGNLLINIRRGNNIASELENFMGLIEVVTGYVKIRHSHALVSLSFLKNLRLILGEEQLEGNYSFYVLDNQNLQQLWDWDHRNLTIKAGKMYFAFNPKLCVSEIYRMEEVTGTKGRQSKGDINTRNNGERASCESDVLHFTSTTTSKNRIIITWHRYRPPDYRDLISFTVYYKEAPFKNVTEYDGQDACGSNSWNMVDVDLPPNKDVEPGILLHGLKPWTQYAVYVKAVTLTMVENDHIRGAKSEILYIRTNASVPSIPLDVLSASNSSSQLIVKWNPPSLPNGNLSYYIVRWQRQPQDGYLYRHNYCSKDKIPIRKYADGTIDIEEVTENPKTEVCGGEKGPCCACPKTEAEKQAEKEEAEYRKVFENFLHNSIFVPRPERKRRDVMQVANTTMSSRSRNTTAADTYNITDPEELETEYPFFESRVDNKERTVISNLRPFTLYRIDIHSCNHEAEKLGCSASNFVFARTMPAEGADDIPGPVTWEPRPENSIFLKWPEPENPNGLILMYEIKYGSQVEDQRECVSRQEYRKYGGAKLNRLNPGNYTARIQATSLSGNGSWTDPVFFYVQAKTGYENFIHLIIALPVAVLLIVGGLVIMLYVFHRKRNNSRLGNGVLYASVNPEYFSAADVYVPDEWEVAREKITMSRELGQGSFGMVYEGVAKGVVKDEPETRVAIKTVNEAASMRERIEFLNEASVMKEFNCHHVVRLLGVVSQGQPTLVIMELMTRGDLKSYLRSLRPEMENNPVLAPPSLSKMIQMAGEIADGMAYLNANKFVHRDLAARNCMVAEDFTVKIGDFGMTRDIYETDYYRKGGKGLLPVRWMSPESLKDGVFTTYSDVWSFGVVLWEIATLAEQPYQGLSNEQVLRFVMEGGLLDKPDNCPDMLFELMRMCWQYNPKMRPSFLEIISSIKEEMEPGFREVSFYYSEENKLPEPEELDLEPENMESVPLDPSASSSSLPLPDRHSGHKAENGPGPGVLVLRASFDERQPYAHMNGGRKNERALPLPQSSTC", "assay": "Protein kinase assay ([γ-32P] ATP), IGF-1R", "procedure": "as §1, §2, §3, §4, §5"}, "[4]": {"target": "TAO1 (Homo sapiens, UniProt Q7L7X3)", "assay": "Protein kinase assay ([γ-32P] ATP), TAO1", "procedure": "as §1, §2, §3, §4, §5"}, "[5]": {"target": "Aurora B (Homo sapiens, UniProt Q96GD4)", "sequence (Q96GD4 whole entry)": "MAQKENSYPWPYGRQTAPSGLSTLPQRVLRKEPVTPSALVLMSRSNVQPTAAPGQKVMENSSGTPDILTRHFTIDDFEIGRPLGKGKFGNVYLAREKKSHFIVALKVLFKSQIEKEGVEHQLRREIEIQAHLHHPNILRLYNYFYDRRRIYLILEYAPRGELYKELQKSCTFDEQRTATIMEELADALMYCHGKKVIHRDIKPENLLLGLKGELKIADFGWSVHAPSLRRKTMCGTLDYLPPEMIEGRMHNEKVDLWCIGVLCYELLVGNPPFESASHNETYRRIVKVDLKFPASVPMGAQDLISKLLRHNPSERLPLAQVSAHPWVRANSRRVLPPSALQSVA", "assay": "Protein kinase assay ([γ-32P] ATP), Aurora B", "procedure": "as §1, §2, §3, §4, §5"}, "[6]": {"target": "SYK (Homo sapiens, UniProt P43405)", "assay": "Protein kinase assay ([γ-32P] ATP), SYK", "procedure": "as §1, §2, §3, §4, §5"}, "[7]": {"target": "DYRK1A (Homo sapiens, UniProt Q13627)", "assay": "Protein kinase assay ([γ-32P] ATP), DYRK1A", "procedure": "as §1, §2, §3, §4, §5"}, "[8]": {"target": "HER4 (Homo sapiens, UniProt Q15303)", "sequence (Q15303 26-1308)": "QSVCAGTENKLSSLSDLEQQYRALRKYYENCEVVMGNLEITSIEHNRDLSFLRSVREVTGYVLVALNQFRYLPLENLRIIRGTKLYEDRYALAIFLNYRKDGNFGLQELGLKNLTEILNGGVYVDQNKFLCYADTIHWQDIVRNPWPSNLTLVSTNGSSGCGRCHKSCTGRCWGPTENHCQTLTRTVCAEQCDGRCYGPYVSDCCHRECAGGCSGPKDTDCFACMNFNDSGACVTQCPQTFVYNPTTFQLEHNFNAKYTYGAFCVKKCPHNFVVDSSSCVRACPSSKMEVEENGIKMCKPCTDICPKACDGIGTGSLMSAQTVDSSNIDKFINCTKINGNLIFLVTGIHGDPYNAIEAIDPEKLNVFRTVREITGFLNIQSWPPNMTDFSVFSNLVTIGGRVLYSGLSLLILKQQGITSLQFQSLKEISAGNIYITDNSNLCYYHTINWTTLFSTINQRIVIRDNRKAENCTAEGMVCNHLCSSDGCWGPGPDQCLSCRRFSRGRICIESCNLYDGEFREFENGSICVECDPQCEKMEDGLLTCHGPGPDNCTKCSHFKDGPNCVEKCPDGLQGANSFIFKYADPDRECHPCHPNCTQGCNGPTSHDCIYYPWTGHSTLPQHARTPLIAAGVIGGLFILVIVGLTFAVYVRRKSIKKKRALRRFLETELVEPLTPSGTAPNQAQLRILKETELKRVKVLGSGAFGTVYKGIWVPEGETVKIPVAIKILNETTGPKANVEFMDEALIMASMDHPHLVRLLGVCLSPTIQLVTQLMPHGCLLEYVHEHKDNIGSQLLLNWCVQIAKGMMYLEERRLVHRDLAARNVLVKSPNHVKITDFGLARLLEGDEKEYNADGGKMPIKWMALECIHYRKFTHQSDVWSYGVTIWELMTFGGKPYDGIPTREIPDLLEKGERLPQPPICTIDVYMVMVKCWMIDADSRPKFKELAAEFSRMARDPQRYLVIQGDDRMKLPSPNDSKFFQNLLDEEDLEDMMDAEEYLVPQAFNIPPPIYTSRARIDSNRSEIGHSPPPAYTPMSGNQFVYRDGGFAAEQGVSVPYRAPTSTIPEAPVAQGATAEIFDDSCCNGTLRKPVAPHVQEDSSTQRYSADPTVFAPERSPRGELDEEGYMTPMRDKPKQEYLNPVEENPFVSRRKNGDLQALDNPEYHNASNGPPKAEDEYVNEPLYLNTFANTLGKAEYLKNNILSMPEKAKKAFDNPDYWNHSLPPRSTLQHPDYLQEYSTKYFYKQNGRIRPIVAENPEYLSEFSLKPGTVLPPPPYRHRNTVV", "assay": "Protein kinase assay ([γ-32P] ATP), HER4", "procedure": "as §1, §2, §3, §4, §5"}, "[9]": {"target": "MARK2 (Homo sapiens, UniProt Q7KZI7)", "assay": "Protein kinase assay ([γ-32P] ATP), MARK2", "procedure": "as §1, §2, §3, §4, §5"}, "[10]": {"target": "CDK2-Cyclin A (Homo sapiens, UniProt P24941)", "assay": "Protein kinase assay ([γ-32P] ATP), CDK2-Cyclin A", "procedure": "as §1, §2, §3, §4, §5"}, "[11]": {"settings": "0.1 μM of compound I-1, DMSO control = 100%"}, "[12]": {"settings": "1 μM of compound I-1, DMSO control = 100%"}}}
{"smiles": "Cc1cccc(C)c1NC(=O)N1C/C=C\\COc2cccc(c2)Nc2cc1ncn2", "note": "[Compound I-1]", "values": [{"measurement": "remaining activity at 0.1 µM", "setting": "[1]; [11]", "value": 41, "unit": "%"}, {"measurement": "remaining activity at 1 µM", "setting": "[1]; [12]", "value": 12, "unit": "%"}, {"measurement": "remaining activity at 0.1 µM", "setting": "[2]; [11]", "value": 98, "unit": "%"}, {"measurement": "remaining activity at 1 µM", "setting": "[2]; [12]", "value": 99, "unit": "%"}, {"measurement": "remaining activity at 0.1 µM", "setting": "[3]; [11]", "value": 109, "unit": "%"}, {"measurement": "remaining activity at 1 µM", "setting": "[3]; [12]", "value": 61, "unit": "%"}, {"measurement": "remaining activity at 0.1 µM", "setting": "[4]; [11]", "value": 72, "unit": "%"}, {"measurement": "remaining activity at 1 µM", "setting": "[4]; [12]", "value": 34, "unit": "%"}, {"measurement": "remaining activity at 0.1 µM", "setting": "[5]; [11]", "value": 89, "unit": "%"}, {"measurement": "remaining activity at 1 µM", "setting": "[5]; [12]", "value": 78, "unit": "%"}, {"measurement": "remaining activity at 0.1 µM", "setting": "[6]; [11]", "value": 100, "unit": "%"}, {"measurement": "remaining activity at 1 µM", "setting": "[6]; [12]", "value": 91, "unit": "%"}, {"measurement": "remaining activity at 0.1 µM", "setting": "[7]; [11]", "value": 104, "unit": "%"}, {"measurement": "remaining activity at 1 µM", "setting": "[7]; [12]", "value": 86, "unit": "%"}, {"measurement": "remaining activity at 0.1 µM", "setting": "[8]; [11]", "value": 100, "unit": "%"}, {"measurement": "remaining activity at 1 µM", "setting": "[8]; [12]", "value": 71, "unit": "%"}, {"measurement": "remaining activity at 0.1 µM", "setting": "[9]; [11]", "value": 102, "unit": "%"}, {"measurement": "remaining activity at 1 µM", "setting": "[9]; [12]", "value": 71, "unit": "%"}, {"measurement": "remaining activity at 0.1 µM", "setting": "[10]; [11]", "value": 107, "unit": "%"}, {"measurement": "remaining activity at 1 µM", "setting": "[10]; [12]", "value": 84, "unit": "%"}]}
